The source of these data is ChEMBL document CHEMBL1123223, “New effective gonadotropin releasing hormone antagonists with minimal potency for histamine release in vitro” (J Med Chem, 1986).

Molecules are shown by their SMILES. Converted amounts (≈) assume the structure as drawn.

The species named for assay [1] is Rattus norvegicus. Nature of the assay: Compound was tested in vitro for its ability to inhibit histamine release from rat mast cells. Format: functional. The note with it: read-out: ED50 (the source's name).
The species entered for assay [2] is Rattus norvegicus. Nature of the assay: GnRH antagonistic dose of compound for 8 rats ovulation out of total 10 using anti-ovulatory assay. Format: functional.
The target of assay [3] is T1, Gonadotropin-releasing hormone receptor (Rattus norvegicus) (UniProt P30969).
T1 sequence (whole entry): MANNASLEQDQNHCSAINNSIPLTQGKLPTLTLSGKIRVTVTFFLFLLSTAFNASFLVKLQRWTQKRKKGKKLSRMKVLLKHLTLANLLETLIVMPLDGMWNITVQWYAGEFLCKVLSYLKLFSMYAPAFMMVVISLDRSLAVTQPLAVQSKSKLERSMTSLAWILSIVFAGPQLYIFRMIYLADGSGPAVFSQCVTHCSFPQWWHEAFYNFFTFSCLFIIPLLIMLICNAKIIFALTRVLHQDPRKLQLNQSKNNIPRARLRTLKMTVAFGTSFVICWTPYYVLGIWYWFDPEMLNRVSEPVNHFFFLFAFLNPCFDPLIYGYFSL
Nature of the assay: Inhibition of GnRH-mediated LH secretion by cultured pituitary cells. Format: functional, cell-based. To be noted: Pituitary gland cell.

Assay [4] is filed under the species Rattus norvegicus. Nature of the assay: Dissociation constant was determined in rat pituitary cells. Format: cell-based. To be noted: pituitary gland cell.
The species entered for assay [5] is Rattus norvegicus. Nature of the assay: GnRH antagonistic dose of compound for 7 rats ovulation out of total 20 using anti-ovulatory assay. It is filed as functional.
Assay [6] is filed under the species Rattus norvegicus. Nature of the assay: GnRH antagonistic dose of compound for 9 rats ovulation out of total 20 using anti-ovulatory assay. It is filed as functional.

Turning to `CC(=O)N[C@H](Cc1ccc2ccccc2c1)C(=O)N[C@H](Cc1ccc(F)cc1)C(=O)N[C@H](Cc1c[nH]c2ccccc12)C(=O)N[C@@H](CO)C(=O)N[C@@H](Cc1ccc(O)cc1)C(=O)N[C@H](CCCN=C(N)N)C(=O)N[C@@H](CC(C)C)C(=O)N[C@@H](CCCN=C(N)N)C(=O)N1CCC[C@H]1C(=O)NCC(=O)O`, in the assay listed under Rattus norvegicus [1], the EC50 amounted to 0.17 µg/mL (≈ 0.118 µM).

In turn, `CC(=O)N[C@H](Cc1ccc2ccccc2c1)C(=O)N[C@H](Cc1ccc(Cl)cc1)C(=O)N[C@H](Cc1cccnc1)C(=O)N[C@@H](CO)C(=O)N[C@@H](CCCN=C(N)N)C(=O)N[C@H](Cc1cn(Cc2ccccc2)cn1)C(=O)N[C@@H](CC(C)C)C(=O)N[C@@H](CCCN=C(N)N)C(=O)N1CCC[C@H]1C(=O)N[C@H](C)C(N)=O` registered an ED100 in the assay filed under Rattus norvegicus [2] of 0.5 µg/kg. In addition, the EC50 in the assay listed under Rattus norvegicus [1] was 4.4 µg/mL (≈ 2.94 µM).

Consider `COc1ccc(C(=O)CC[C@@H](NC(=O)[C@H](CCCN=C(N)N)NC(=O)[C@H](CO)NC(=O)[C@@H](Cc2cccnc2)NC(=O)[C@@H](Cc2ccc(Cl)cc2)NC(=O)[C@@H](Cc2ccc3ccccc3c2)NC(C)=O)C(=O)N(C)[C@@H](CC(C)C)C(=O)N[C@@H](CCCN=C(N)N)C(=O)N2CCC[C@H]2C(=O)N[C@H](C)C(N)=O)cc1`, for which the ED100 in the assay filed under Rattus norvegicus [2] came out at 1 µg/kg. The EC50 in the assay filed under Rattus norvegicus [1] came to 4.6 µg/mL (≈ 3.07 µM).

Compound `CC(=O)N[C@H](Cc1ccc2ccccc2c1)C(=O)N[C@H](Cc1ccc(Cl)cc1)C(=O)N[C@H](Cc1cccnc1)C(=O)N[C@@H](CO)C(=O)N[C@@H](CCCN=C(N)N)C(=O)N[C@H](Cc1ccc2ccccc2c1)C(=O)N[C@@H](CC(C)C)C(=O)N[C@@H](CCCN=C(N)N)C(=O)N1CCC[C@@H]1C(=O)N[C@H](C)C(=O)O` gave a Relative potency in assay [3] of 0.88. This compound showed an ED100 in the assay listed under Rattus norvegicus [2] of 1 µg/kg. The compound also came in with an equilibrium dissociation constant (Kd) in the assay listed under Rattus norvegicus [4] of 5 nM. Further, the EC50 in the assay listed under Rattus norvegicus [1] stood at 1.9 µg/mL (≈ 1.3 µM).

With `CC(=O)N1CCC[C@@H]1C(=O)N[C@H](Cc1ccc(F)cc1)C(=O)N[C@H](Cc1c[nH]c2ccccc12)C(=O)N[C@@H](CO)C(=O)N[C@@H](Cc1ccc(O)cc1)C(=O)N[C@H](Cc1c[nH]c2ccccc12)C(=O)N[C@@H](CC(C)C)C(=O)N[C@@H](CCCN=C(N)N)C(=O)N1CCC[C@H]1C(=O)NCC(=O)O`, in the assay filed under Rattus norvegicus [1], the EC50 turned out to be 39 µg/mL (≈ 28.5 µM).

In assay [3], `CC(=O)N[C@H](Cc1ccc2ccccc2c1)C(=O)N[C@H](Cc1ccc(Cl)cc1)C(=O)N[C@H](Cc1cccnc1)C(=O)N[C@@H](CO)C(=O)N[C@@H](CCCN=C(N)N)C(=O)N[C@H](CCC(=O)O)C(=O)N[C@@H](CC(C)C)C(=O)N[C@@H](CCCN=C(N)N)C(=O)N1CCC[C@@H]1C(=O)N[C@H](C)C(=O)O` came in with a Relative potency of 0.09. In the assay listed under Rattus norvegicus [4], binding was put at a Kd of 0.16 nM.

As for `COc1ccc(C(=O)CC[C@@H](NC(=O)[C@H](Cc2ccc(O)cc2)NC(=O)[C@H](CO)NC(=O)[C@@H](Cc2cccnc2)NC(=O)[C@@H](Cc2ccc(Cl)cc2)NC(=O)[C@H]2CCCN2C(C)=O)C(=O)N(C)[C@@H](CC(C)C)C(=O)N[C@@H](CCCN=C(N)N)C(=O)N2CCC[C@@H]2C(=O)N[C@H](C)C(=O)O)cc1`, the Relative potency in assay [3] worked out at 0.13. The compound also came in with a Kd in the assay listed under Rattus norvegicus [4] of 0.31 nM.

`CC(=O)N[C@H](Cc1ccc2ccccc2c1)C(=O)N[C@H](Cc1ccc(Cl)cc1)C(=O)N[C@H](Cc1cccnc1)C(=O)N[C@@H](CO)C(=O)N[C@@H](CCCN=C(N)N)C(=O)N[C@H](Cc1c[nH]c2cc([N+](=O)[O-])ccc12)C(=O)N[C@@H](CC(C)C)C(=O)N[C@@H](CCCN=C(N)N)C(=O)N1CCC[C@H]1C(=O)N[C@H](C)C(=O)O`: the Relative potency in assay [3] is 1.16. For the same compound, in the assay listed under Rattus norvegicus [5], the ED100 stood at 0.5 µg/kg. The compound also returned a Kd in the assay listed under Rattus norvegicus [4] of 0.63 nM. Moreover, the EC50 in the assay listed under Rattus norvegicus [1] came to 2.7 µg/mL (≈ 1.8 µM).

The compound `CC(=O)N[C@H](Cc1ccc2ccccc2c1)C(=O)N[C@H](Cc1ccc(Cl)cc1)C(=O)N[C@H](Cc1cccnc1)C(=O)N[C@@H](CO)C(=O)N[C@@H](CCCN=C(N)N)C(=O)N[C@H](Cc1cn(C=O)c2ccccc12)C(=O)N[C@@H](CC(C)C)C(=O)N[C@@H](CCCN=C(N)N)C(=O)N1CCC[C@H]1C(=O)N[C@H](C)C(=O)O` gave a Relative potency in assay [3] of 0.95. The ED100 in the assay filed under Rattus norvegicus [6] stood at 0.5 µg/kg. In the assay listed under Rattus norvegicus [4], the dissociation constant (Kd) was found to be 0.48 nM. Besides, the EC50 in the assay filed under Rattus norvegicus [1] worked out at 3.4 µg/mL (≈ 2.29 µM).

Broadly, the Kd is the constant that tells how readily two partners part at equilibrium. Read a high Kd as a looser complex.
